From PubChem BioAssay (NCI)
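A five-concentration, 48-hour dose response in 96-well plates underlies each endpoint, interpolated linearly between surrounding concentrations. Here, GI50 denotes the concentration required for 50% inhibition of growth. The concentration for full growth arrest is given as TGI.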

What was measured:
Experiment in all cases: inhibition of tumour cell growth, NCI panel, 48 h
OVCAR-8 ovarian = system: OVCAR-8 ovarian
SN12C renal = system: SN12C renal
786-0 renal = system: 786-0 renal
PC-3 prostate = system: PC-3 prostate
MDA-MB-435 = system: MDA-MB-435
HOP-92 NSCLC = system: HOP-92 NSCLC
NCI-H460 lung = system: NCI-H460 lung
HS 578T breast = system: HS 578T breast
IGROV1 ovarian = system: IGROV1 ovarian
ACHN renal = system: ACHN renal
SR leukemia = system: SR leukemia
KM12 colon = system: KM12 colon
SNB-19 CNS = system: SNB-19 CNS
HT29 colon = system: HT29 colon
OVCAR-4 ovarian = system: OVCAR-4 ovarian
CAKI-1 renal = system: CAKI-1 renal
NCI-H23 lung = system: NCI-H23 lung
OVCAR-5 ovarian = system: OVCAR-5 ovarian
MOLT-4 leukemia = system: MOLT-4 leukemia
MDA-MB-231 breast = system: MDA-MB-231 breast
NCI-H522 lung = system: NCI-H522 lung
HCT-15 colon = system: HCT-15 colon
SW-620 colon = system: SW-620 colon
NCI-H226 lung = system: NCI-H226 lung
RPMI-8226 leukemia = system: RPMI-8226 leukemia
SF-295 CNS = system: SF-295 CNS
K-562 leukemia = system: K-562 leukemia
TK-10 renal = system: TK-10 renal
HOP-62 NSCLC = system: HOP-62 NSCLC
HL-60(TB) leukemia = system: HL-60(TB) leukemia
SNB-75 CNS = system: SNB-75 CNS
HCT-116 colon = system: HCT-116 colon
HCC-2998 colon = system: HCC-2998 colon
SK-OV-3 ovarian = system: SK-OV-3 ovarian
M14 melanoma = system: M14 melanoma
UACC-62 melanoma = system: UACC-62 melanoma
EKVX NSCLC = system: EKVX NSCLC
MCF7 breast = system: MCF7 breast
SF-539 CNS = system: SF-539 CNS
SF-268 CNS = system: SF-268 CNS
DU-145 prostate = system: DU-145 prostate
UACC-257 melanoma = system: UACC-257 melanoma
A498 renal = system: A498 renal
NCI/ADR-RES ovarian = system: NCI/ADR-RES ovarian
RXF 393 renal = system: RXF 393 renal
SK-MEL-2 melanoma = system: SK-MEL-2 melanoma
T-47D breast = system: T-47D breast
U251 CNS = system: U251 CNS
LOX IMVI melanoma = system: LOX IMVI melanoma
MALME-3M melanoma = system: MALME-3M melanoma
UO-31 renal = system: UO-31 renal
BT-549 breast = system: BT-549 breast
COLO 205 colon = system: COLO 205 colon
A549 NSCLC = system: A549 NSCLC
SK-MEL-28 melanoma = system: SK-MEL-28 melanoma
CCRF-CEM leukemia = system: CCRF-CEM leukemia
OVCAR-3 ovarian = system: OVCAR-3 ovarian
SK-MEL-5 melanoma = system: SK-MEL-5 melanoma

In the case of `Cn1cc(-c2ccc3nnc(Sc4ccc5ncccc5c4)n3n2)cn1`, the GI50 (OVCAR-8 ovarian) is reported as 66.7 µM, the TGI (OVCAR-8 ovarian) is reported as over 100 µM and the GI50 (SN12C renal) is reported as over 73.9 µM. It also gave a TGI (SN12C renal) of over 100 µM, a GI50 (786-0 renal) of over 100 µM and a TGI (786-0 renal) of over 100 µM. The GI50 (PC-3 prostate) was over 92.7 µM, the TGI (PC-3 prostate) was over 100 µM and the GI50 (MDA-MB-435) was over 100 µM. It also gave a TGI (MDA-MB-435) of over 100 µM, a GI50 (HOP-92 NSCLC) of 7.07 µM and a TGI (HOP-92 NSCLC) of over 71.4 µM. It also gave a GI50 (NCI-H460 lung) of 79.2 µM, a TGI (NCI-H460 lung) of over 100 µM and a GI50 (HS 578T breast) of 10.4 µM. For the same molecule, the TGI (HS 578T breast) was over 72.1 µM, the GI50 (IGROV1 ovarian) was over 88.6 µM and the TGI (IGROV1 ovarian) was over 100 µM. The GI50 (ACHN renal) was 54.1 µM, the TGI (ACHN renal) was over 100 µM and the GI50 (SR leukemia) was 68.1 µM. For the same molecule, the TGI (SR leukemia) was over 100 µM, the GI50 (KM12 colon) was over 100 µM and the TGI (KM12 colon) was over 100 µM. The GI50 (SNB-19 CNS) was 47.3 µM, the TGI (SNB-19 CNS) was over 100 µM and the GI50 (HT29 colon) was over 100 µM. For the same molecule, the TGI (HT29 colon) was over 100 µM, the GI50 (OVCAR-4 ovarian) was over 100 µM and the TGI (OVCAR-4 ovarian) was over 100 µM. It also gave a GI50 (CAKI-1 renal) of 40.8 µM, a TGI (CAKI-1 renal) of over 100 µM and a GI50 (NCI-H23 lung) of 56 µM. For the same molecule, the TGI (NCI-H23 lung) was over 100 µM, the GI50 (OVCAR-5 ovarian) was 61.9 µM and the TGI (OVCAR-5 ovarian) was over 100 µM. For the same molecule, the GI50 (MOLT-4 leukemia) was over 100 µM, the TGI (MOLT-4 leukemia) was over 100 µM and the GI50 (MDA-MB-231 breast) was 24.4 µM. It also gave a TGI (MDA-MB-231 breast) of 96.9 µM, a GI50 (NCI-H522 lung) of over 100 µM and a TGI (NCI-H522 lung) of over 100 µM. For the same molecule, the GI50 (HCT-15 colon) was over 100 µM, the TGI (HCT-15 colon) was over 100 µM and the GI50 (SW-620 colon) was over 100 µM. The TGI (SW-620 colon) was over 100 µM, the GI50 (NCI-H226 lung) was over 59.1 µM and the TGI (NCI-H226 lung) was over 100 µM. The GI50 (RPMI-8226 leukemia) was 41.2 µM, the TGI (RPMI-8226 leukemia) was over 100 µM and the GI50 (SF-295 CNS) was 2.06 µM. It also gave a TGI (SF-295 CNS) of over 100 µM, a GI50 (K-562 leukemia) of 38.4 µM and a TGI (K-562 leukemia) of over 100 µM. For the same molecule, the GI50 (TK-10 renal) was 40.7 µM, the TGI (TK-10 renal) was over 100 µM and the GI50 (HOP-62 NSCLC) was 30.9 µM. The TGI (HOP-62 NSCLC) was over 100 µM, the GI50 (HL-60(TB) leukemia) was over 100 µM and the TGI (HL-60(TB) leukemia) was over 100 µM. For the same molecule, the GI50 (SNB-75 CNS) was 26.1 µM, the TGI (SNB-75 CNS) was over 100 µM and the GI50 (HCT-116 colon) was 53 µM. The TGI (HCT-116 colon) was over 100 µM, the GI50 (HCC-2998 colon) was over 100 µM and the TGI (HCC-2998 colon) was over 100 µM. It also gave a GI50 (SK-OV-3 ovarian) of over 73.9 µM, a TGI (SK-OV-3 ovarian) of over 100 µM and a GI50 (M14 melanoma) of over 100 µM. The TGI (M14 melanoma) was over 100 µM, the GI50 (UACC-62 melanoma) was over 100 µM and the TGI (UACC-62 melanoma) was over 100 µM. For the same molecule, the GI50 (EKVX NSCLC) was 97 µM, the TGI (EKVX NSCLC) was over 100 µM and the GI50 (MCF7 breast) was 97.5 µM. The TGI (MCF7 breast) was over 100 µM, the GI50 (SF-539 CNS) was over 93.4 µM and the TGI (SF-539 CNS) was over 100 µM. The GI50 (SF-268 CNS) was 60.2 µM, the TGI (SF-268 CNS) was over 100 µM and the GI50 (DU-145 prostate) was 73.3 µM. The TGI (DU-145 prostate) was over 100 µM, the GI50 (UACC-257 melanoma) was over 100 µM and the TGI (UACC-257 melanoma) was over 100 µM. For the same molecule, the GI50 (A498 renal) was over 23 µM, the TGI (A498 renal) was over 93.1 µM and the GI50 (NCI/ADR-RES ovarian) was over 100 µM. For the same molecule, the TGI (NCI/ADR-RES ovarian) was over 100 µM, the GI50 (RXF 393 renal) was 26.6 µM and the TGI (RXF 393 renal) was over 100 µM. It also gave a GI50 (SK-MEL-2 melanoma) of 48.4 µM, a TGI (SK-MEL-2 melanoma) of over 100 µM and a GI50 (T-47D breast) of 99.3 µM. It also gave a TGI (T-47D breast) of over 100 µM, a GI50 (U251 CNS) of 28.5 µM and a TGI (U251 CNS) of over 100 µM. For the same molecule, the GI50 (LOX IMVI melanoma) was 57.8 µM, the TGI (LOX IMVI melanoma) was over 100 µM and the GI50 (MALME-3M melanoma) was over 100 µM. For the same molecule, the TGI (MALME-3M melanoma) was over 100 µM, the GI50 (UO-31 renal) was 61.9 µM and the TGI (UO-31 renal) was over 100 µM. For the same molecule, the GI50 (BT-549 breast) was 48.7 µM, the TGI (BT-549 breast) was over 100 µM and the GI50 (COLO 205 colon) was 30.4 µM. It also gave a TGI (COLO 205 colon) of over 100 µM, a GI50 (A549 NSCLC) of over 86 µM and a TGI (A549 NSCLC) of over 100 µM. The GI50 (SK-MEL-28 melanoma) was over 100 µM, the TGI (SK-MEL-28 melanoma) was over 100 µM and the GI50 (CCRF-CEM leukemia) was 51.6 µM. For the same molecule, the TGI (CCRF-CEM leukemia) was over 100 µM, the GI50 (OVCAR-3 ovarian) was over 91.4 µM and the TGI (OVCAR-3 ovarian) was over 100 µM. It also gave a GI50 (SK-MEL-5 melanoma) of over 74.3 µM and a TGI (SK-MEL-5 melanoma) of over 100 µM.
